“Also recorded” adds a separate entry of the source.
Key:
ERRγ = molecular target: T1, ERRγ (Homo sapiens, UniProt P62508); conditions: cited from earlier work
T1 sequence (P62508 1-458): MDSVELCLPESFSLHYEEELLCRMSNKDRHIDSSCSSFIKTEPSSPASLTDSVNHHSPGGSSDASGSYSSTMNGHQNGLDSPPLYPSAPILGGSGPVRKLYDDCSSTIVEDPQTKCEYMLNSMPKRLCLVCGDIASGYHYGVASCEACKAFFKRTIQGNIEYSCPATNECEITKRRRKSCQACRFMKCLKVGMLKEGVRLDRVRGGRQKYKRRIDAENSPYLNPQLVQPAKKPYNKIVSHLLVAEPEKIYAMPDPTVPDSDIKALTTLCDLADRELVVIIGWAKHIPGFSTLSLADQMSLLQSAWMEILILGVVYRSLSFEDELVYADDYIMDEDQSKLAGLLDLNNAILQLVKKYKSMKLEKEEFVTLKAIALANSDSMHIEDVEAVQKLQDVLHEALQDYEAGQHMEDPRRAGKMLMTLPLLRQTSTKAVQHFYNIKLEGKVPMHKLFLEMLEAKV

ERRβ = molecular target: T2, ERRβ (Homo sapiens, UniProt O95718); conditions: cited from earlier work
T2 sequence (O95718 1-433): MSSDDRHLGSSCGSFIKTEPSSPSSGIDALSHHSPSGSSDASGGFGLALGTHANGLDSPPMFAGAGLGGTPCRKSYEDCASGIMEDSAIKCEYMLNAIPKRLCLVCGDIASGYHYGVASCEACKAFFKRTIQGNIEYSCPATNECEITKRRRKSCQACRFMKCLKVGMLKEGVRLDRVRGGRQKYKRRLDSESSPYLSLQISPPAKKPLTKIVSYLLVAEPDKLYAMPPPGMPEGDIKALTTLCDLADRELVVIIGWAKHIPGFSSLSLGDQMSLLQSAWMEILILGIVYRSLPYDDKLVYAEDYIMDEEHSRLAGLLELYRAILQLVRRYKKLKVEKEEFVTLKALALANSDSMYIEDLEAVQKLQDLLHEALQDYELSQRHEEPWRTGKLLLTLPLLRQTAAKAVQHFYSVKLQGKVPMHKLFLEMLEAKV

type II muscle = assay: AICAR treatment of mice, SDH staining of muscle cryo-sections; assay type: in vivo; conditions: AICAR 500 mg/kg/day for 4 weeks, intra-peritoneally, male C57Bl/6J mice
Method: Drug treatment. Male C57Bl/6J mice (8 weeks old) were intra-peritoneally injected with vehicle or AICAR (500 mg/kg/day), as previously described (Narkar et al., 2008).
Succinate Dehydrogenase (SDH) Staining. SDH staining was performed on […] cryo-sections of gastrocnemius. Briefly, WT and transgenic sections were incubated at 37° C. for 10 min in substrate buffer [0.2M Phosphate buffer containing sodium succinate (250 mg/10 ml) and NBT (10 mg/10 ml)]. Following incubation, sections were washed three times with water following by two washes each with increasing and decreasing concentrations of acetone (30%, 60%, 90%). Finally, the sections were washed three times with water and mounted in an aqueous mounting media.

[1] = dose 500 mg/kg/day; cited from earlier work
AMPK = conditions: dose 500 mg/kg/day; cited from earlier work

For `CCN(CC)c1ccc(C=NNC(=O)c2ccc(O)cc2)cc1` (stereo in doubt) [GSK9089, N-[(E)-[4-(diethylamino)phenyl]methylideneamino]-4-hydroxybenzamide], the “agonist of ERRγ” value (ERRγ) is listed as “agonists” and the “agonist of ERRβ” value (ERRβ) is listed as “agonists”.
For `NC(=O)c1ncn([C@@H]2O[C@H](CO)[C@@H](O)[C@H]2O)c1N` [AICAR], the “aerobic transformation of skeletal muscle (SDH staining)” value (type II muscle) is listed as “able to direct aspects of skeletal muscle transformation in a fashion similar to ERRγ; also recorded: triggers aerobic transformation of type II muscle”, the aerobic performance [1] is listed as “improve aerobic performance” and the “stimulation of AMPK in anaerobic muscle” value (AMPK) is listed as “stimulate AMPK in anaerobic muscle”.
In the case of `Nc1ccc(C(=O)N/N=C/c2ccc(/N=N/c3ccccc3)cc2)cn1` [E6], the “selectivity for ERRγ over ERRα and β” value (ERRγ; screening assay of Kim et al. 2009) is given as “selective for ERRγ but not ERRα and β”.
In the case of `CC(C)c1ccc(/C=N/NC(=O)c2ccc(O)cc2)cc1` [GSK4716], the “agonist of ERRβ” value (ERRβ) is listed as “agonists”.

— patent US20170189485A1, “MODULATION OF ESTROGEN RECEPTOR-RELATED RECEPTOR GAMMA (ERR GAMMA) AND USES THEREFOR” (Salk Institute for Biological Studies, priority 2011, published 2017)
